Assay results from PubChem BioAssay (NCI).
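Growth conditions: 96-well plates. Treatment: test compound, 48 hours, 5 concentrations. Analysis: linear interpolation between bracketing concentrations; unreached endpoints set to highest concentration. GI50 = concentration required for 50% inhibition of growth. TGI: total growth inhibition.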

Columns and labels:
Test in all cases: NCI-60 cell line screen, 48 h; in the data active means GI50 below about 0.43 µM; inactive means the rest
OVCAR-8 ovarian = test system: OVCAR-8 ovarian
KM12 colon = test system: KM12 colon
HOP-62 NSCLC = test system: HOP-62 NSCLC
U251 CNS = test system: U251 CNS
EKVX NSCLC = test system: EKVX NSCLC
LOX IMVI melanoma = test system: LOX IMVI melanoma
TK-10 renal = test system: TK-10 renal
MDA-MB-435 = test system: MDA-MB-435
HS 578T breast = test system: HS 578T breast
786-0 renal = test system: 786-0 renal
A498 renal = test system: A498 renal
RPMI-8226 leukemia = test system: RPMI-8226 leukemia
NCI-H460 lung = test system: NCI-H460 lung
OVCAR-4 ovarian = test system: OVCAR-4 ovarian
HCT-15 colon = test system: HCT-15 colon
SK-MEL-28 melanoma = test system: SK-MEL-28 melanoma
SNB-75 CNS = test system: SNB-75 CNS
UO-31 renal = test system: UO-31 renal
OVCAR-5 ovarian = test system: OVCAR-5 ovarian
NCI-H226 lung = test system: NCI-H226 lung
A549 NSCLC = test system: A549 NSCLC
NCI-H522 lung = test system: NCI-H522 lung
SK-MEL-2 melanoma = test system: SK-MEL-2 melanoma
HCT-116 colon = test system: HCT-116 colon
MOLT-4 leukemia = test system: MOLT-4 leukemia
IGROV1 ovarian = test system: IGROV1 ovarian
SK-OV-3 ovarian = test system: SK-OV-3 ovarian
MCF7 breast = test system: MCF7 breast
PC-3 prostate = test system: PC-3 prostate
SNB-19 CNS = test system: SNB-19 CNS
CAKI-1 renal = test system: CAKI-1 renal
BT-549 breast = test system: BT-549 breast
CCRF-CEM leukemia = test system: CCRF-CEM leukemia
HCC-2998 colon = test system: HCC-2998 colon
NCI/ADR-RES ovarian = test system: NCI/ADR-RES ovarian
ACHN renal = test system: ACHN renal
K-562 leukemia = test system: K-562 leukemia
MALME-3M melanoma = test system: MALME-3M melanoma
SF-268 CNS = test system: SF-268 CNS
DU-145 prostate = test system: DU-145 prostate
UACC-62 melanoma = test system: UACC-62 melanoma
RXF 393 renal = test system: RXF 393 renal
SK-MEL-5 melanoma = test system: SK-MEL-5 melanoma
COLO 205 colon = test system: COLO 205 colon
HT29 colon = test system: HT29 colon
UACC-257 melanoma = test system: UACC-257 melanoma
SF-295 CNS = test system: SF-295 CNS
NCI-H23 lung = test system: NCI-H23 lung
T-47D breast = test system: T-47D breast
SF-539 CNS = test system: SF-539 CNS
SN12C renal = test system: SN12C renal
M14 melanoma = test system: M14 melanoma
SW-620 colon = test system: SW-620 colon

CCC1OC(/C(C)=C/C(C)/C=C/C2C(C)C2/C=C/C2OC(CC(=O)O)CC(O)C2O)CC=C1C (stereo unspecified)
inactive: GI50 (OVCAR-8 ovarian) > 50 µM | GI50 (KM12 colon) > 50 µM | GI50 (HOP-62 NSCLC) > 50 µM | GI50 (U251 CNS) > 50 µM | GI50 (EKVX NSCLC) > 50 µM | GI50 (LOX IMVI melanoma) > 50 µM | GI50 (TK-10 renal) 9.6 µM | GI50 (MDA-MB-435) > 50 µM | GI50 (HS 578T breast) > 50 µM | GI50 (786-0 renal) > 50 µM | GI50 (A498 renal) > 50 µM | GI50 (RPMI-8226 leukemia) > 50 µM | GI50 (NCI-H460 lung) > 50 µM | GI50 (OVCAR-4 ovarian) > 50 µM | GI50 (HCT-15 colon) > 50 µM | GI50 (SK-MEL-28 melanoma) > 50 µM | GI50 (SNB-75 CNS) > 50 µM | GI50 (UO-31 renal) > 50 µM | GI50 (OVCAR-5 ovarian) > 50 µM | GI50 (NCI-H226 lung) > 50 µM | GI50 (A549 NSCLC) > 50 µM | GI50 (NCI-H522 lung) > 50 µM | GI50 (SK-MEL-2 melanoma) > 50 µM | GI50 (HCT-116 colon) > 50 µM | GI50 (MOLT-4 leukemia) > 50 µM | GI50 (IGROV1 ovarian) > 50 µM | GI50 (SK-OV-3 ovarian) > 50 µM | GI50 (MCF7 breast) > 50 µM | GI50 (PC-3 prostate) > 50 µM | GI50 (SNB-19 CNS) > 50 µM | GI50 (CAKI-1 renal) > 50 µM | GI50 (BT-549 breast) > 50 µM | GI50 (CCRF-CEM leukemia) > 50 µM | GI50 (HCC-2998 colon) > 50 µM | GI50 (NCI/ADR-RES ovarian) 14.4 µM | GI50 (ACHN renal) > 50 µM | GI50 (K-562 leukemia) > 50 µM | GI50 (MALME-3M melanoma) 1.99 µM | GI50 (SF-268 CNS) > 50 µM | GI50 (DU-145 prostate) > 50 µM | GI50 (UACC-62 melanoma) > 50 µM | GI50 (RXF 393 renal) > 50 µM | GI50 (SK-MEL-5 melanoma) > 50 µM | GI50 (COLO 205 colon) > 50 µM | GI50 (HT29 colon) > 50 µM | GI50 (UACC-257 melanoma) > 50 µM | GI50 (SF-295 CNS) > 50 µM | GI50 (NCI-H23 lung) > 50 µM | GI50 (T-47D breast) > 50 µM | GI50 (SF-539 CNS) > 50 µM | GI50 (SN12C renal) > 50 µM | GI50 (M14 melanoma) > 50 µM | GI50 (SW-620 colon) > 50 µM
> 50 µM: TGI (OVCAR-8 ovarian) | TGI (KM12 colon) | TGI (HOP-62 NSCLC) | TGI (U251 CNS) | TGI (EKVX NSCLC) | TGI (LOX IMVI melanoma) | TGI (TK-10 renal) | TGI (MDA-MB-435) | TGI (HS 578T breast) | TGI (786-0 renal) | TGI (A498 renal) | TGI (RPMI-8226 leukemia) | TGI (NCI-H460 lung) | TGI (OVCAR-4 ovarian) | TGI (HCT-15 colon) | TGI (SK-MEL-28 melanoma) | TGI (SNB-75 CNS) | TGI (UO-31 renal) | TGI (OVCAR-5 ovarian) | TGI (NCI-H226 lung) | TGI (A549 NSCLC) | TGI (NCI-H522 lung) | TGI (SK-MEL-2 melanoma) | TGI (HCT-116 colon) | TGI (MOLT-4 leukemia) | TGI (IGROV1 ovarian) | TGI (SK-OV-3 ovarian) | TGI (MCF7 breast) | TGI (PC-3 prostate) | TGI (SNB-19 CNS) | TGI (CAKI-1 renal) | TGI (BT-549 breast) | TGI (CCRF-CEM leukemia) | TGI (HCC-2998 colon) | TGI (NCI/ADR-RES ovarian) | TGI (ACHN renal) | TGI (K-562 leukemia) | TGI (MALME-3M melanoma) | TGI (SF-268 CNS) | TGI (DU-145 prostate) | TGI (UACC-62 melanoma) | TGI (RXF 393 renal) | TGI (SK-MEL-5 melanoma) | TGI (COLO 205 colon) | TGI (HT29 colon) | TGI (UACC-257 melanoma) | TGI (SF-295 CNS) | TGI (NCI-H23 lung) | TGI (T-47D breast) | TGI (SF-539 CNS) | TGI (SN12C renal) | TGI (M14 melanoma) | TGI (SW-620 colon)
